The results in this text go back to patent publication US7491819B1 (priority 2004, dated 2009).

Usually IC50 stands for the concentration needed to halve the response being measured.

Some results are limits rather than exact numbers.

The target in the experiment is T1, HIV-integrase (Human immunodeficiency virus type 1 group M subtype B, UniProt P12497).
T1 construct: Recombinant integrase (0.26 ng) was incubated with the beads
Description: HIV-Integrase Inhibition Activity (SPA bead strand-transfer assay). The class given is biochemical. Particulars: Table 1; read-out: Activity (HIV-integrase inhibition, IC50 class). The procedure, abridged: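 Strand-transfer read-out: CPM from P33-labelled target DNA (0.1 fmol) joined to bead-bound biotin substrate DNA (5 pmole), with EDTA stop at 10 mM final. Integrase (0.26 ng) prebound to streptavidin SPA beads 90 min, 37° C, and washed before adding inhibitor.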
Regarding `CC1(C)OCCn2c1nc(C(=O)NCc1ccc(F)cc1N1CCCCC1=O)c(O)c2=O` [Example 121, Pyrimido[2,1-c][1,4]oxazine-2-carboxamide, N-[[4-fluoro-2-(2-oxo-1-piperidinyl)phenyl]methyl]-4,6,7,9-tetrahydro-3-hydroxy-9,9-dimethyl-4-oxo-], the IC50 lay in the range of 2 to 100 nM.

With `CC1(C)OCCn2c1nc(C(=O)NCc1ccccc1N1CCOC1=O)c(O)c2=O` [Example 122, Pyrimido[2,1-c][1,4]oxazine-2-carboxamide, 4,6,7,9-tetrahydro-3-hydroxy-9,9-dimethyl-4-oxo-N-[[2-(2-oxo-3-oxazolidinyl)phenyl]methyl]-], the IC50 is 2 to 100 nM.

As to `CC1(C)OCCn2c1nc(C(=O)NCc1ccccc1N1CCC1=O)c(O)c2=O` [Example 123, Pyrimido[2,1-c][1, 4]oxazine-2-carboxamide, 4,6,7,9-tetrahydro-3-hydroxy-9,9-dimethyl-4-oxo-N-[[2-(2-oxo-1-azetidinyl)phenyl]methyl]-], the IC50 lay in the range of 2 to 100 nM.

`CC1(C)OCCn2c1nc(C(=O)NCc1ccc(F)cc1N1CCCC1=O)c(O)c2=O` [Example 124, Pyrimido[2,1-c][1,4]oxazine-2-carboxamide, N-[[4-fluoro-2-(2-oxo-1-pyrrolidinyl)phenyl]methyl]-4,6,7,9-tetrahydro-3-hydroxy-9,9-dimethyl-4-oxo]: the IC50 is 2 to 100 nM.

In the case of `CC1(C)OCCn2c1nc(C(=O)NCc1ccc(F)cc1N1CCCCCC1=O)c(O)c2=O` [Example 125, Pyrimido[2,1-c][1,4]oxazine-2-carboxamide, N-[[4-fluoro-2-(hexahydro-2-oxo-1H-azepin-1-yl)phenyl]methyl]-4,6,7,9-tetrahydro-3-hydroxy-9,9-dimethyl-4-oxo-], the IC50 was in the range of 2 to 100 nM.

Take `CC1(C)OCCn2c1nc(C(=O)NCc1ccc(F)cc1N1CCC1=O)c(O)c2=O` [Example 126, N-(4-Fluoro-2-(2-oxoazetidin-1-yl)benzyl)-3-hydroxy-9,9-dimethyl-4-oxo-4,6,7,9-tetrahydropyrimido[2,1-c][1,4]oxazine-2-carboxamide]: the half-inhibitory concentration (IC50) lay within 2 to 100 nM.

On to `CC1(C)OCCn2c1nc(C(=O)NCc1ccc(F)cc1N1CCOC1=O)c(O)c2=O` [Example 127, N-(4-Fluoro-2-(2-oxooxazolidin-3-yl)benzyl)-3-hydroxy-9,9-dimethyl-4-oxo-4,6,7,9-tetrahydropyrimido[2,1-c][1,4]oxazine-2-carboxamide], for which the concentration for half-maximal inhibition (IC50) lay within 2 to 100 nM.

For `CC1(C)OCCn2c1nc(C(=O)NCc1ccc(F)cc1N1C(=O)CC[C@@H]1CO)c(O)c2=O` [Example 128, Pyrimido[2,1-c][1,4]oxazine-2-carboxamide, N-[[4-fluoro-2-[(2R)-2-(hydroxymethyl)-5-oxo-1-pyrrolidinyl]phenyl]methyl]-4,6,7,9-tetrahydro-3-hydroxy-9,9-dimethyl-4-oxo-], the half-inhibitory concentration (IC50) fell in the range of 2 to 100 nM.

Regarding `CC(=O)OC[C@H]1CCC(=O)N1c1cc(F)ccc1CNC(=O)c1nc2n(c(=O)c1O)CCOC2(C)C` [Example 129, Pyrimido[2,1-c][1,4]oxazine-2-carboxamide, N-[[2-[(2R)-2-[(acetyloxy)methyl]-5-oxo-1-pyrrolidinyl]-4-fluorophenyl]methyl]-4,6,7,9-tetrahydro-3-hydroxy-9,9-dimethyl-4-oxo-], the 50% inhibitory concentration (IC50) lay in the range of 2 to 100 nM.

Turning to `CC1(C)OCCn2c1nc(C(=O)NCc1ccc(F)cc1N1C(=O)CC[C@H]1CO)c(O)c2=O` [Example 130, Pyrimido[2,1-c][1,4]oxazine-2-carboxamide, N-[[4-fluoro-2-[(2S)-2-(hydroxymethyl)-5-oxo-1-pyrrolidinyl]phenyl]methyl]-4,6,7,9-tetrahydro-3-hydroxy-9,9-dimethyl-4-oxo-], the 50% inhibitory concentration (IC50) was 2 to 100 nM.

With `CN(C)C[C@H]1CCC(=O)N1c1cc(F)ccc1CNC(=O)c1nc2n(c(=O)c1O)CCOC2(C)C` [Example 131, (R)—N-(2-(2-((Dimethylamino)methyl)-5-oxopyrrolidin-1-yl)-4-fluorobenzyl)-3-hydroxy-9,9-dimethyl-4-oxo-4,6,7,9-tetrahydropyrimido[2,1-c][1,4]oxazine-2-carboxamide], the IC50 lay within 100 to 1000 nM.

With `CC1(C)OCCn2c1nc(C(=O)NCc1ccc(F)cc1N1C(=O)CC[C@@H]1CN=[N+]=[N-])c(O)c2=O` [Example 132, (R)—N-(2-(2-(Azidomethyl)-5-oxopyrrolidin-1-yl)-4-fluorobenzyl)-3-hydroxy-9,9-dimethyl-4-oxo-4,6,7,9-tetrahydropyrimido[2,1-c][1,4]oxazine-2-carboxamide], the IC50 is 2 to 100 nM.

On to `CC1(C)OCCn2c1nc(C(=O)NCc1ccc(F)cc1N1C(=O)CC[C@@H]1CN)c(O)c2=O` [Example 133, (R)—N-(2-(2-(Aminomethyl)-5-oxopyrrolidin-1-yl)-4-fluorobenzyl)-3-hydroxy-9,9-dimethyl-4-oxo-4,6,7,9-tetrahydropyrimido[2,1-c][1,4]oxazine-2-carboxamide], for which the IC50 lay within 100 to 1000 nM.

Turning to `CC1(C)OCCn2c1nc(C(=O)NCc1ccc(F)cc1N)c(O)c2=O` [Example 134, Pyrimido[2,1-c][1,4]oxazine-2-carboxamide, N-[(2-amino-4-fluorophenyl)methyl]-4,6,7,9-tetrahydro-3-hydroxy-9,9-dimethyl-4-oxo-], the IC50 was 2 to 100 nM.

For the compound `CC(=O)Nc1cc(F)ccc1CNC(=O)c1nc2n(c(=O)c1O)CCOC2(C)C` [Example 135, Pyrimido[2,1-c][1,4]oxazine-2-carboxamide, N-[[2-(acetylamino)-4-fluorophenyl]methyl]-4,6,7,9-tetrahydro-3-hydroxy-9,9-dimethyl-4-oxo-], the half-maximal inhibitory concentration (IC50) lay within 2 to 100 nM.

Regarding `CC(=O)N(C)c1cc(F)ccc1CNC(=O)c1nc2n(c(=O)c1O)CCOC2(C)C` [Example 136, Pyrimido[2,1-c][1,4]oxazine-2-carboxamide, N-[[2-(acetylmethylamino)-4-fluorophenyl]methyl]-4,6,7,9-tetrahydro-3-hydroxy-9,9-dimethyl-4-oxo-], the IC50 was 2 to 100 nM.

For the compound `CC1(C)OCCn2c1nc(C(=O)NCc1ccccc1N1C(=O)C=CC1=O)c(O)c2=O` [Example 137, N-(2-(2,5-Dioxo-2H-pyrrol-1(5H)-yl)benzyl)-3-hydroxy-9,9-dimethyl-4-oxo-4,6,7,9-tetrahydropyrimido[2,1-c][1,4]oxazine-2-carboxamide], the IC50 is 2 to 100 nM.

Regarding `CC1(C)OCCn2c1nc(C(=O)NCc1cccc3ccsc13)c(O)c2=O` [Example 138, Pyrimido[2,1-c][1,4]oxazine-2-carboxamide, N-(benzo[b]thien-7-ylmethyl)-4,6,7,9-tetrahydro-3-hydroxy-9,9-dimethyl-4-oxo-], the IC50 fell in the range of 2 to 100 nM.

Turning to `CC1(C)OCCn2c1nc(C(=O)NCc1cccc3c1S(=O)(=O)C=C3)c(O)c2=O` [Example 139, Pyrimido[2,1-c][1,4]oxazine-2-carboxamide, N-[(1,1-dioxidobenzo[b]thien-7-yl)methyl]-4,6,7,9-tetrahydro-3-hydroxy-9,9-dimethyl-4-oxo-], the IC50 lay within 2 to 100 nM.

In the case of `CC1(C)OCCn2c1nc(C(=O)NCc1cccc3c1S(=O)(=O)CC3)c(O)c2=O` [Example 140, Pyrimido[2,1-c][1,4]oxazine-2-carboxamide, N-[(2,3-dihydro-1,1-dioxidobenzo[b]thien-7-yl)methyl]-4,6,7,9-tetrahydro-3-hydroxy-9,9-dimethyl-4-oxo-], the IC50 is 2 to 100 nM.

Take `CC1(C)OCCn2c1nc(C(=O)NCc1ccccn1)c(O)c2=O` [Example 141, Pyrimido[2,1-c][1,4]oxazine-2-carboxamide, 4,6,7,9-tetrahydro-3-hydroxy-9,9-dimethyl-4-oxo-N-(2-pyridinylmethyl)-]: the half-maximal inhibitory concentration (IC50) fell in the range of 2 to 100 nM.

`Cc1cnc(CNC(=O)c2nc3n(c(=O)c2O)CCOC3(C)C)cn1` [Example 142, Pyrimido[2,1-c][1,4]oxazine-2-carboxamide, 4,6,7,9-tetrahydro-3-hydroxy-9,9-dimethyl-N-[(5-methylpyrazinyl)methyl]-4-oxo-]: the IC50 lay within 2 to 100 nM.

For `CSc1ccc(CNC(=O)c2nc3n(c(=O)c2O)CCOC3(C)C)cc1` [Example 143, Pyrimido[2,1-c][1,4]oxazine-2-carboxamide, 4,6,7,9-tetrahydro-3-hydroxy-9,9-dimethyl-N-[[4-(methylthio)phenyl]methyl]-4-oxo-], the IC50 lay within 2 to 100 nM.

`Cc1[nH]c2ccc(CNC(=O)c3nc4n(c(=O)c3O)CCOC4(C)C)cc2c1C` [Example 144, Pyrimido[2,1-c][1,4]oxazine-2-carboxamide, N-[(2,3-dimethyl-1H-indol-5-yl)methyl]-4,6,7,9-tetrahydro-3-hydroxy-9,9-dimethyl-4-oxo-]: the IC50 fell in the range of 100 to 1000 nM.

As to `CC(C)Oc1ccc(CNC(=O)c2nc3n(c(=O)c2O)CCOC3(C)C)cc1` [Example 145, Pyrimido[2,1-c][1,4]oxazine-2-carboxamide, 4,6,7,9-tetrahydro-3-hydroxy-9,9-dimethyl-N-[[4-(1-methylethoxy)phenyl]methyl]-4-oxo-], the IC50 was greater than 1000 nM.

As for `CC1(C)OCCn2c1nc(C(=O)NCc1cc(F)cc(F)c1)c(O)c2=O` [Example 146, Pyrimido[2,1-c][1,4]oxazine-2-carboxamide, N-[(3,5-difluorophenyl)methyl]-4,6,7,9-tetrahydro-3-hydroxy-9,9-dimethyl-4-oxo-], the IC50 is 2 to 100 nM.

For `CC1(C)OCCn2c1nc(C(=O)NCc1ccccc1Br)c(O)c2=O` [Example 147, Pyrimido[2,1-c][1,4]oxazine-2-carboxamide, N-[(2-bromophenyl)methyl]-4,6,7,9-tetrahydro-3-hydroxy-9,9-dimethyl-4-oxo-], the half-inhibitory concentration (IC50) fell in the range of 2 to 100 nM.

Turning to `CC1(C)OCCn2c1nc(C(=O)NCc1ccccc1-c1cccc3cccnc13)c(O)c2=O` [Example 148, Pyrimido[2,1-c][1,4]oxazine-2-carboxamide, 4,6,7,9-tetrahydro-3-hydroxy-9,9-dimethyl-4-oxo-N-[[2-(8-quinolinyl)phenyl]methyl]-], the IC50 lay within 100 to 1000 nM.
